Laboratory results as given in US4996201A, “4-(N-substituted amino)-2-butynyl-1-carbamates and thiocarbamates and derivatives thereof as centrally acting muscarinic agents” (Warner-Lambert Co., priority 1989, dated 1991).
Counter-ions that a name gives are not always drawn.

Assays:
[1] = in vivo; cited from earlier work
[2] = biological target: central muscarinic agonist site; experiment: Receptor [3H]Cis-methyldioxalane Assay (RCMD), central muscarinic agonist site binding; conditions: rat cerebral cortex tissue; radiolabeled cis-methyldioxalane; head also prints (0.1 μM)
[3] = system: central muscarinic antagonist site; assay type: binding; conditions: rat cerebral cortex tissue; radiolabeled quinuclidinyl benzilate; (1 μM); read-out: RQNB IC50
[4] = system: human SK-N-SH cells bearing muscarinic binding sites; experiment: Muscarinic Induced Inositol Phosphate Accumulation Assay (MIPA); assay type: cell-based; conditions: inositol phosphate production, concentration for response 50% of the maximum, read-out: Agonist Response ED50
Protocol: In the Muscarinic Induced Inositol Phosphate Accumulation Assay (MIPA) human SK-N-SH cells bearing muscarinic binding sites are incubated with the test compound. The production of inositol phosphates is then measured. Stimulation of inositol phosphate turnover reflects the degree of muscarinic agonist activity of the test compound. The concentration of test compound required to produce a response 50% of the maximum is then determined.

[5] = system: laboratory rats; experiment: Scopolamine Induced Swimming Assay (SIS); assay type: in vivo, rat; conditions: for reversal of scopolamine-induced swimming hyperactivity: rats given scopolamine, result in words
Protocol: In the Scopolamine Induced Swimming Assay (SIS) the ability of a test compound to reverse the hyperactive swimming behavior of laboratory rats given scopolamine is determined. In the assay, untreated rats generally swim between 20 to 30 meters during a five-minute test period. […] The effect of scopolamine is centrally mediated. Thus, the ability of the test compound to reverse the hyperactive swimming behavior induced by scopolamine is a measure of the central cholinergic activity of the compound.

[6] = system: aged humans and nonhuman primates; conditions: acetylcholinesterase inhibitor; cited from earlier work
[7] = system: mice; conditions: cited from earlier work
[8] = in vivo; cited from earlier work; remark: listed apart in the source

SMILES: Nc1ccncc1N [3,4-diaminopyridine]
- age-related cognitive deficits [1]: ameliorate age-related cognitive deficits

SMILES: COC(=O)N(C)CC#CCN1CCCC1 [Example 1, Methyl[methyl4-(1-pyrrolidinyl]-2-butynyl]]-carbamate, ethanedioate (1:1) (salt)]
- IC50 [2]: 14.3 nM
- IC50 [3]: 2660 nM
- EC50 [4]: 10000 nM
- minimal effective dose ([5]; Rattus norvegicus, Minimal Effective Dose to reverse scopolamine (0.1 mg/kg) induced hyperactive swimming in rats, read-out: Reversal of SIS Hyperactivity MED): 10 mg/kg

SMILES: COC(=O)N(C)CC#CCN1CCCCC1 [Example 1f, Methyl methyl[4-(1-piperidinyl]-2-butynyl-carbamate, ethanedioate (1:1) (salt)]
- IC50 [2]: 1570 nM
- IC50 [3]: 4990 nM

SMILES: COC(=O)N(C)CC#CCN1CCCCCC1 [Example 1g, Methyl[4-(hexahydro-1H-azepin-1-yl]-2-butynyl]methylcarbamate, ethanedioate (1:1) (salt)]
- IC50 [2]: 958 nM
- IC50 [3]: 1950 nM

SMILES: COC(=O)N(C)CC#CCN(C)C [Example 2, Methyl[4-(dimethylamino)-2-butynyl]methyl-carbamate, ethanedioate (1:1)(salt)]
- IC50 [2]: 63 nM
- IC50 [3]: 46600 nM
- EC50 [4]: 59200 nM

SMILES: COC(=O)C1=CCCN(C)C1 [arecoline]
- reversal of scopolamine-induced swimming hyperactivity [5]: can be reversed

SMILES: CNC(=O)Oc1ccc2c(c1)[C@]1(C)CCN(C)[C@@H]1N2C [physostigmine]
- memory [6]: improved memory
- reversal of scopolamine-induced swimming hyperactivity [5]: can be reversed

SMILES: CN1[C@@H]2C[C@@H](OC(=O)[C@H](CO)c3ccccc3)C[C@H]1[C@@H]1O[C@@H]12 [scopolamine]
- swimming distance increase above baseline values ([5]; scopolamine 0.1 mg/kg, five-minute test period, rats): 75-125%

SMILES: C(#CCN1CCCC1)CN1CCCC1 [tremorine, 1,4-dipyrrolidino-2-butyne]
- duration of profound tremor of the head and limbs [7]: more than one
- conversion to active metabolite oxotremorine [8]: converted to an active metabolite, oxotremorine
